Measured values: patent publication US12157730B2, “Heteroaryl derivative, method for producing same, and pharmaceutical composition comprising same as effective component” (VORONOI INC., priority 2019, dated 2024)

Molecular target: T1, Ba/F3 cell EGFR Exon20 ins NPH (Homo sapiens, UniProt P00533, INS773NPH)
T1 construct: expressed in transfected cells; host or cells: Ba/F3
Test: Ba/F3 cell proliferation suppression, EGFR Exon20 ins NPH
Assay type: cell-based
Details: GI50 class; Ba/F3 cell line with NPH inserted at Exon20 of EGFR; 72 hours
Summary of the method: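 After 72 h compound exposure (twelve 3-fold steps, 0.3 nM–50 um final), live cells were measured by CellTiter-Glo luminescence and growth expressed as % of control to derive GI50. Cells were seeded at 3000–5000 per well a day earlier; Ba/F3 medium contained IL-3; three repeats.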

Row | Compound | Ba/F3 (NPH) Activity
1 | C=CC(=O)Nc1cc(Nc2cc(N3OCC[C@@H]3c3ccc(F)c(Cl)c3F)ncn2)c(OC)cc1N1CCC(N2CCN(C)CC2)CC1 [compound 605, N-(5-((6-((R)-3-(3-chloro-2,4-difluorophenyl)isoxazolidine-2-yl)pyrimidine-4-yl)amino)-4-methoxy-2-(4-(4-methylpiperazine-1-yl)piperidine-1-yl)phenyl) acrylamide] | A (GI50 < 50 nM)
2 | C=CC(=O)Nc1cc(Nc2cc(N3OCC[C@@H]3c3cc(F)cc(F)c3)ncn2)c(OC)cc1N1CCC(N2CCN(C3CC3)[C@@H](C)C2)CC1 [Example 110, N-(2-(4-((S)-4-cyclopropyl-3-methylpiperazine-1-yl)piperidine-1-yl)-5-((6-((R)-3-(3,5-difluorophenyl)isoxazolidine-2-yl)pyrimidine-4-yl)amino)-4-methoxyphenyl) acrylamide] | A (GI50 < 50 nM)
3 | C=CC(=O)Nc1cc(Nc2cc(N3OCC[C@@H]3c3ccc(F)c(Cl)c3F)ncn2)c(OC)cc1N1CCN(C)[C@@H](C)C1 [compound 665, N-(5-((6-((R)-3-(3-chloro-2,4-difluorophenyl)isoxazolidine-2-yl)pyrimidine-4-yl)amino)-2-((S)-3,4-dimethylpiperazine-1-yl)-4-methoxyphenyl) acrylamide] | B (50 nM ≤ GI50 < 500 nM)
4 | C=CC(=O)Nc1cc(Nc2cc(N3OCC[C@@H]3Cc3ccccc3)ncn2)c(OC)cc1N1CC[C@@H](N(C)C)C1 [compound 964, N-(5-((6-((S)-3-benzylisoxazolidine-2-yl)pyrimidine-4-yl)amino)-2-((R)-3-(dimethylamino)pyrolidine-1-yl)-4-methoxyphenyl) acrylamide] | A (GI50 < 50 nM)
5 | C=CC(=O)Nc1cc(Nc2cc(N3OCC[C@@H]3c3ccccc3)ncn2)c(OC)cc1N1CCC(N2CCN(CC)CC2)CC1 [Example 55, N-(2-(4-(4-ethylpiperazine-1-yl)piperidine-1-yl)-4-methoxy-5-((6-((R)-3-phenylisoxazolidine-2-yl)pyrimidine-4-yl)amino)phenyl) acrylamide] | A (GI50 < 50 nM)
6 | C=CC(=O)Nc1cc(Nc2cc(N3OCC[C@@H]3c3ccc(F)c(Cl)c3F)ncn2)c(OC)cc1N1C[C@@H](C)O[C@@H](C)C1 [compound 667, N-(5-((6-((R)-3-(3-chloro-2,4-difluorophenyl)isoxazolidine-2-yl)pyrimidine-4-yl)amino)-2-((2S,6R)-2,6-dimethylmorpholino)-4-methoxyphenyl) acrylamide] | B (50 nM ≤ GI50 < 500 nM)
7 | C=CCN1CCN(C2CCN(c3cc(OC)c(Nc4cc(N5OCC[C@@H]5c5cccc(Cl)c5C)ncn4)cc3NC(=O)C=C)CC2)CC1 [Example 213, N-(2-(4-(4-allylpiperazine-1-yl)piperidine-1-yl)-5-((6-((R)-3-(3-chloro-methylphenyl)isoxazolidine-2-yl)pyrimidine-4-yl)amino)-4-methoxyphenyl) acrylamide] | A (GI50 < 50 nM)
8 | C=CC(=O)Nc1cc(Nc2cc(N3OCC[C@@H]3c3ccc(F)cc3)ncn2)c(OC)cc1N1CCC(N2CCN(C3CC3)CC2)CC1 [Example 66, N-(2-(4-(4-cyclopropylpiperazine-1-yl)piperidine-1-yl)-5-((6-((R)-3-(4-fluorophenyl)isoxazolidine-2-yl)pyrimidine-4-yl)amino)-4-methoxyphenyl) acrylamide] | A (GI50 < 50 nM)
9 | C=CC(=O)Nc1cc(Nc2cc(N3OCC[C@@H]3Cc3ccccc3)ncn2)c(OC)cc1N1CCN(CC2CC2)CC1 [compound 959, N-(5-((6-((S)-3-benzylisoxazolidine-2-yl)pyrimidine-4-yl)amino)-2-(4-(cyclopropylmethyl)piperazine-1-yl)-4-methoxyphenyl) acrylamide] | A (GI50 < 50 nM)
10 | C=CC(=O)Nc1cc(Nc2cc(N3OCC[C@@H]3c3ccc(F)c(Cl)c3F)ncn2)c(OC)cc1N1CCC(N2CCN(C3CCC3)CC2)CC1 [Example 193, N-(5-((6-((R)-3-(3-chloro-2,4-difluorophenyl)isoxazolidine-2-yl)pyrimidine-4-yl)amino)-2-(4-(4-cyclobutylpiperazine-1-yl)piperidine-1-yl)-4-methoxyphenyl) acrylamide] | A (GI50 < 50 nM)
11 | C=CC(=O)Nc1cc(Nc2cc(N3OCC[C@@H]3c3ccc(F)cc3F)ncn2)c(OC)cc1N1CCN(CC2CC2)CC1 [compound 380, N-(2-(4-(cyclopropylmethyl)piperazine-1-yl)-5-((6-((R)-3-(2,4-difluorophenyl)isoxazolidine-2-yl)pyrimidine-4-yl)amino)-4-methoxyphenyl) acrylamide] | A (GI50 < 50 nM)
12 | C=CC(=O)Nc1cc(Nc2cc(N3OCC[C@@H]3c3cccc(F)c3Cl)ncn2)c(OC)cc1N(C)CCN(C)C [compound 551, N-(5-((6-((R)-3-(2-chloro-3-fluorophenyl)isoxazolidine-2-yl)pyrimidine-4-yl)amino)-2-((2-(dimethylamino)ethyl)(methyl)amino)-4-methoxyphenyl) acrylamide] | A (GI50 < 50 nM)
13 | C=CC(=O)Nc1cc(Nc2cc(N3OCC[C@@H]3c3cc(F)cc(F)c3)ncn2)c(OC)cc1N1CCC(N2CCC(F)(F)CC2)CC1 [compound 718, N-(2-(4,4-difluoro-[1,4'-bipiperidine]-1'-yl)-5-((6-((R)-3-(3,5-difluorophenyl)isoxazolidine-2-yl)pyrimidine-4-yl)amino)-4-methoxyphenyl) acrylamide] | A (GI50 < 50 nM)
14 | C=CC(=O)Nc1cc(Nc2cc(N3OCC[C@@H]3c3ccc(Cl)cc3)ncn2)c(OC)cc1N1CCC(N2CC[C@@H](N(C)C)C2)CC1 [compound 783, N-(5-((6-((R)-3-(4-chlorophenyl)isoxazolidine-2-yl)pyrimidine-4-yl)amino)-2-(4-((R)-3-(dimethylamino)pyrolidine-1-yl)piperidine-1-yl)-4-methoxyphenyl) acrylamide] | A (GI50 < 50 nM)
15 | C=CC(=O)Nc1cc(Nc2cc(N3OCC[C@@H]3c3cccc(Cl)c3F)ncn2)c(OC)cc1N1CCC(N2CCN(C(C)C)CC2)CC1 [compound 707, N-(5-((6-((R)-3-(3-chloro-2-fluorophenyl)isoxazolidine-2-yl)pyrimidine-4-yl)amino)-2-(4-(4-isopropylpiperazine-1-yl)piperidine-1-yl)-4-methoxyphenyl) acrylamide] | A (GI50 < 50 nM)
16 | C=CC(=O)Nc1cc(Nc2cc(N3OCC[C@@H]3c3c(F)ccc(F)c3Cl)ncn2)c(OC)cc1N1CCC(N2CCN(C3CC3)CC2)CC1 [compound 933, N-(5-((6-((R)-3-(2-chloro-3,6-difluorophenyl)isoxazolidine-2-yl)pyrimidine-4-yl)amino)-2-(4-(4-cyclopropylpiperazine-1-yl)piperidine-1-yl)-4-methoxyphenyl) acrylamide] | A (GI50 < 50 nM)
17 | C=CC(=O)Nc1cc(Nc2cc(N3OCC[C@@H]3c3ccc(Cl)c(Cl)c3)ncn2)c(OC)cc1N1CCN(CCN(C)C)CC1 [compound 686, N-(5-((6-((R)-3-(3,4-dichlorophenyl)isoxazolidine-2-yl)pyrimidine-4-yl)amino)-2-(4-(2-(dimethylamino)ethyl)piperazine-1-yl)-4-methoxyphenyl) acrylamide] | B (50 nM ≤ GI50 < 500 nM)
18 | C=CC(=O)Nc1cc(Nc2cc(N3OCC[C@@H]3c3ccccc3)ncn2)c(OC)cc1N1CCC(N2CCN(C3CCOCC3)CC2)CC1 [Example 102, N-(4-methoxy-5-((6-((R)-3-phenylisoxazolidine-2-yl)pyrimidine-4-yl)amino)-2-(4-(4-(tetrahydro-2H-pyran-4-yl)piperazine-yl)piperidine-yl)phenyl)acrylamide] | A (GI50 < 50 nM)
19 | C=CC(=O)Nc1cc(Nc2cc(N3OCC[C@@H]3c3cccc(F)c3F)ncn2)c(OC)cc1N1CC[C@@H](N(C)C)C1 [compound 927, N-(5-((6-((R)-3-(2,3-difluorophenyl)isoxazolidine-2-yl)pyrimidine-4-yl)amino)-2-((R)-3-(dimethylamino)pyrolidine-1-yl)-4-methoxyphenyl) acrylamide] | A (GI50 < 50 nM)
20 | C=CC(=O)Nc1cc(Nc2cc(N3OCC[C@@H]3c3cccs3)ncn2)c(OC)cc1N1CCN(C)CC1 [compound 929, N-(4-methoxy-2-(4-methylpiperazine-1-yl)-5-((6-((R)-3-(thiophene-2-yl)isoxazolidine-2-yl)pyrimidine-4-yl)amino)phenyl)acrylamide] | A (GI50 < 50 nM)
21 | C=CC(=O)Nc1cc(Nc2cc(N3OCC[C@@H]3c3cccc(Cl)c3Cl)ncn2)c(OC)cc1N1C[C@@H]2C[C@H]1CN2CC [compound 524, N-(5-((6-((R)-3-(2,3-dichlorophenyl)isoxazolidine-2-yl)pyrimidine-4-yl)amino)-2-((1S,4S)-5-ethyl-2,5-diazabicyclo[2.2.1]heptane-2-yl)-4-methoxyphenyl) acrylamide] | A (GI50 < 50 nM)
22 | C=CC(=O)Nc1cc(Nc2cc(N3OCC[C@@H]3c3cccc(Cl)c3)ncn2)c(OC)cc1N1CCC(N2CC[C@H](N(C)C)C2)CC1 [compound 508, N-(5-((6-((R)-3-(3-chlorophenyl)isoxazolidine-2-yl)pyrimidine-4-yl)amino)-2-(4-((S)-3-(dimethylamino)pyrolidine-1-yl)piperidine-1-yl)-4-methoxyphenyl) acrylamide] | A (GI50 < 50 nM)
23 | C=CCN1CCN(C2CCN(c3cc(OC)c(Nc4cc(N5OCC[C@@H]5c5ccc(Cl)cc5F)ncn4)cc3NC(=O)C=C)CC2)CC1 [Example 211, N-(2-(4-(4-allylpiperazine-1-yl)piperidine-1-yl)-5-((6-((R)-3-(4-chloro-2-fluorophenyl)isoxazolidine-2-yl)pyrimidine-4-yl)amino)-4-methoxyphenyl) acrylamide] | A (GI50 < 50 nM)
